Experimental data taken from article PMC6218115, “In Vitro Potency and Preclinical Pharmacokinetic Comparison of All-D-Enantiomeric Peptides Developed for the Treatment of Alzheimer’s Disease” (Journal of Alzheimer's Disease, 2018).
pIC50: −log10 of the molar value. Read-outs that look alike come from different tables or passages of the source. Non-standard residues stand in square brackets, D forms with d. Residues, ends and D or L forms follow the SMILES beside them.

How the values were obtained:
[1] = biological target: T1, Aβ1-42 (Homo sapiens, UniProt P05067); assay: Aβ aggregation assay (Thioflavin T); assay type: biochemical; details: for molar excess with regard to Aβ for complete inhibition of Aβ1-42 fibril formation: 10 μM Aβ1-42, ThT; for reduction of the aggregation amplitude: equimolar concentration of peptide relative to Aβ1-42 (10 μM)
T1 construct: Lyophilized Aβ1 - 42 was dissolved in the respective peptide solution; purchased Isoloid GmbH (recombinant) or Bachem AG (synthetic)
Method: The potencies of ANK6, tANK6, cANK6r, and D3 to inhibit Aβ1 - 42 aggregation was examined using Thioflavin T (ThT). For this purpose, a buffer solution composed of 20 mM sodium phosphate buffer (pH 7.4) including 50 mM sodium chloride, and 5μM ThT was prepared. Afterwards, ANK6, tANK6, cANK6r, or D3 were diluted in this solution, respectively, to final peptide concentrations between 0.3125 and 80μM (ANK6 and tANK6:0.3125, 0.625, 1.25, 2.5, 5, 10, 20μM; cANK6r: 1.25, 2.5, 5, 10, 20, 40, 80μM; D3:1.17, 2.34, 4.7, 9.4, 18.8, 37.5, 75μM).
The buffer solution only served as negative control (blank). Lyophilized Aβ1 - 42 was dissolved in the respective peptide solution to a final concentration of 10μM. D-peptide solutions with the highest concentration of the respective D-peptide containing all components, except of Aβ1 - 42, served as negative controls. Aβ1 - 42 solved in buffer solution without D-peptide served as positive control. 100μL of each solution were transferred into the wells (triplicates) of 96 well microplates (PS, black, non-binding from Greiner Bio-One, Germany) and fluorescence signals (excitationλ 440 nm, emissionλ 490 nm) were measured in a Polarstar Optima plate reader (BMG, Germany) at 37°C every 20 min for 70 h. Afterwards, the respective blank curves were subtracted from each aggregation curve to exclude background fluorescence. […] The half maximal inhibitory concentration (IC50 value) was determined by plotting the percent inhibition against the respective D-peptides’ concentrations. Datasets were fitted by nonlinear regression (one site – specific binding with Hill slope, GraphPad Prism 5).

[2] = Pharmacokinetic concentration-time profiles and parameters after i.v. and p.o. administration; assay type: in vivo, C57Bl/6N mice; details: mice; for peptide concentration detected in the blood: 4 h after single oral administration of 10 mg/kg; for brain/plasma ratio: 24 h after administration; for Cmax, brain / Cmax, plasma: 3H-label LSC; for Cmax, plasma: 3 mice/time point; for AUC %ID,0 - 1440, plasma: non-compartmental analysis; for F (AUC %ID), oral bioavailability: p.o. 10 mg/kg (ANK6, tANK6) or 15 mg/kg (cANK6r) versus i.v. 3.3 mg/kg, plasma AUC %ID
Method: The pharmacokinetic profiles were investigated in 180 male C57Bl/6N mice aged 13-14 weeks, weighing about 27.4 g in average. Mice were ordered at Charles River (Germany) and housed at least one week under standard housing conditions (12/12 h light-dark cycle, approximately 22°C room temperature and 54% humidity; water and food available ad libitum) in the animal facility of the Forschungszentrum Jülich GmbH before the experiments were carried out. All animal experiments were approved by the Animal Protection Committee of the local government according to the German Protection of Animals Act (LANUV, North-Rhine-Westphalia, Germany, Az.84-02.04.2017.A029).
To determine the concentration-time profiles of ANK6, tANK6, and cANK6r in murine brain, plasma, liver, kidney, and cerebrospinal fluid (CSF) after i.v. and p.o. administration, mixed solutions of non-labelled and ^3H-labelled peptides were prepared. The administered solutions contained 1 mg/mL (i.v.) or 3 mg/mL (p.o.) of the respective D-peptide including small amounts of ^3H-labelled peptides (0.54μg/mL ^3H-ANK6, 1.79μg/mL ^3H-tANK6, or 0.98μg/mL ^3H-cANK6r). Doses were administered by body weight: i.v. 3.3 mg/kg, ANK6 & tANK6 p.o. 10 mg/kg, cANK6r p.o. 15 mg/kg. Three male C57Bl/6N mice aged 13-14 weeks were investigated per time point whereby individual outliers were excluded from further evaluation. Organs were harvested as follows: i.v. 5, 10, 30, 60, 120, 240, 360, 1080, 1440 min; p.o.: 10, 20, 30, 60, 120, 240, 360, 1080, 1440 min.
Animals whose CSF was not extracted were anesthetized with isoflurane (cp-pharma, Germany) inhalation approximately 2 min before each organ harvesting time point. Afterwards, blood was taken by cardiac puncture and the heparinized blood was centrifuged (3000 g, 5 min, 4°C) to get plasma. The plasma in the supernatant was separated and 1:1 diluted with PBS. The right brain hemisphere, 200 mg of the big liver lobe, and the right kidney were removed, weighed, and homogenized in 500μL PBS (Precellys Ceramic Kit 1.4 mm, Precellys 24, Bertin technologies SAS, France). 100μL of the diluted plasma, the homogenized brain, liver, or kidney (in triplicates), or 1–5μL (exactly determined) of the extracted CSF (extraction procedure see below, single determination) were mixed with 10 mL scintillation cocktail (Ultima Gold XR, PerkinElmer, USA). The mixture was incubated overnight (100 rpm, room temperature).
Animals whose CSF was extracted (organ harvesting time points: 60 min, 240 min, 1440 min) were i.p. anesthetized with ketamine/medetomidine approximately 20 min before each sampling time point. When the mouse was in deep narcosis, the cisterna magna was laid free and punctuated with a small capillary to extract about 5μL of CSF as described before. Afterwards, cardiac puncture, organ extractions, and sample preparations were performed as described above.
Quantification of the amount of ^3H-labelled D-peptides was performed with a LSC and the results (dpm/sample) were converted into mg/mL or % injected dose (% ID)/mL for plasma and for CSF, or in mg/g or % ID/g for brain, liver, and kidney as described before. Total peptide concentrations in the samples were back-calculated from the measured ^3H-labelled peptides’ radioactivity as described before [[20, 25, 26, 29]].
The determined peptide concentrations were plotted over time to allow for comparison of all peptides’ uptake into brain, plasma, liver, kidney, and CSF. Concentrations at 0 min were set to 0 % ID/mL or 0 % ID/g except for plasma concentrations after i.v. administration. There, concentrations were linearly back-extrapolated based on the first two measured time points (5 min, 10 min).
To calculate the pharmacokinetic parameters of ANK6, tANK6, and cANK6r for plasma and brain, concentration-time profiles were analyzed. […]

[3] = 10 μM Aβ1-42, 5 μM ThT, 20 mM sodium phosphate pH 7.4, 50 mM NaCl, 37°C, 70 h, triplicates, nonlinear regression, read-out: IC50, inhibition of Aβ1-42 aggregation into ThT-positive fibrils
[4] = i.v. 3.3 mg/kg, back-extrapolated to 0 min
[5] = p.o. 10 mg/kg (ANK6, tANK6) or 15 mg/kg (cANK6r)

T1 sequence (P05067 672-713 limits assumed): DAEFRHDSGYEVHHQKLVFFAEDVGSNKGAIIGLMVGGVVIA

| molar excess with regard to Aβ for complete inhibition of Aβ1-42 fibril formation [1] | AUC %ID,0 - 1440, brain ([2]; i.v. 3.3 mg/kg) | CL, terminal plasma clearance ([2]; i.v. 3.3 mg/kg) | MRT, plasma ([2]; i.v. 3.3 mg/kg) | t1/2, terminal half-life, plasma ([2]; i.v. 3.3 mg/kg) | tmax, brain ([2]; i.v. 3.3 mg/kg) | tmax, plasma ([2]; i.v. 3.3 mg/kg) | λz, terminal elimination rate constant, plasma ([2]; i.v. 3.3 mg/kg) | Cmax, brain ([2]; i.v. 3.3 mg/kg) | Cmax, plasma [2, 4] | AUC %ID,0 - 1440, plasma ([2]; i.v. 3.3 mg/kg) | AUC %ID,0 - 1440, brain [2, 5] | CL, terminal plasma clearance [2, 5] | MRT, plasma [2, 5] | t1/2, terminal half-life, plasma [2, 5] | tmax, brain [2, 5] | tmax, plasma [2, 5] | λz, terminal elimination rate constant, plasma [2, 5] | F (AUC %ID), oral bioavailability [2] | Cmax, brain [2, 5] | SMILES | further results |
| --- | --- | --- | --- | --- | --- | --- | --- | --- | --- | --- | --- | --- | --- | --- | --- | --- | --- | --- | --- | --- | --- |
| two-fold molar excess | 56.6 min*% ID/g | 88.9 mL/min/kg | 7 h | 18 h | 0.5 h | 0 h | 0.00063 min⁻¹ | 0.06 % ID/g | 0.40 % ID/mL | 26.1 min*% ID/mL | 22.5 min*% ID/g | 113.0 mL/min/kg | 11 h | 31 h | 18 h | 4 h | 0.00038 min⁻¹ | 49.4% | 0.02 % ID/g | CC[C@@H](C)[C@@H](NC(=O)[C@@H](CCCNC(=N)N)NC(=O)[C@@H](CCCCN)NC(=O)[C@H](N)CCCNC(=N)N)C(=O)N[C@H](CCCNC(=N)N)C(=O)N[C@H](CC(C)C)C(=O)N[C@@H](C(=O)N[C@@H](C(=O)N[C@H](CCCCN)C(=O)N[C@H](CCCCN)C(=O)N[C@H](CCCCN)C(=O)N[C@H](CCCNC(=N)N)C(=O)N[C@H](CCCNC(=N)N)C(=O)N[C@H](CCCCN)C(=O)N[C@H](CCCNC(=N)N)C(=O)N[C@@H](C(=O)N[C@H](CCCNC(=N)N)C(=O)N[C@H](CC(C)C)C(=O)N[C@@H](C(=O)N[C@@H](C(=O)N[C@H](CCCCN)C(=O)N[C@H](CCCCN)C(=O)N[C@H](CCCCN)C(=O)N[C@H](CCCNC(=N)N)C(N)=O)[C@H](C)O)C(C)C)[C@H](C)CC)[C@H](C)O)C(C)C [tANK6] (H-[dR][dK][dR][dI][dR][dL][dV][dT][dK][dK][dK][dR][dR][dK][dR][dI][dR][dL][dV][dT][dK][dK][dK][dR]-NH2; N-terminus assumed) | pIC50 [1, 3]: 5.68; reduction of the aggregation amplitude [1]: more than 97%; peptide concentration detected in the blood [2]: 0.01 µM; brain/plasma ratio ([2]; i.v.): 6.89; Cmax, plasma [2, 5]: 0.02 % ID/mL; AUC %ID,0 - 1440, plasma [2, 5]: 12.9 min*% ID/mL |
| about eight-fold molar excess | 85.6 min*% ID/g | 18.4 mL/min/kg | 2 h | 18 h | 0.083 h | 0 h | 0.00064 min⁻¹ | 0.12 % ID/g | 3.29 % ID/mL | 181.0 min*% ID/mL | 19.1 min*% ID/g | 135.5 mL/min/kg | 9 h | 30 h | 6 h | 1 h | 0.00039 min⁻¹ | 9.9% | 0.02 % ID/g | CC[C@@H](C)[C@H]1NC(=O)[C@@H](CCCNC(=N)N)NC(=O)[C@@H](CCCCN)NC(=O)[C@@H](CCCNC(=N)N)NC(=O)[C@@H](CCCNC(=N)N)NC(=O)[C@@H](CCCNC(=N)N)NC(=O)[C@@H](CCCCN)NC(=O)[C@@H](CCCCN)NC(=O)[C@@H](CCCCN)NC(=O)[C@@H]([C@H](C)O)NC(=O)[C@@H](C(C)C)NC(=O)[C@@H](CC(C)C)NC(=O)[C@@H](CCCNC(=N)N)NC1=O [cANK6r] (cyclo([dR][dK][dR][dI][dR][dL][dV][dT][dK][dK][dK][dR][dR])) | pIC50 [1, 3]: 5.43; brain/plasma ratio ([2]; p.o.): 1.17; Cmax, plasma [2, 5]: 0.05 % ID/mL; AUC %ID,0 - 1440, plasma [2, 5]: 17.9 min*% ID/mL |

| SMILES | molar excess with regard to Aβ for complete inhibition of Aβ1-42 fibril formation [1] | AUC %ID,0 - 1440, brain ([2]; i.v. 3.3 mg/kg) | CL, terminal plasma clearance ([2]; i.v. 3.3 mg/kg) | MRT, plasma ([2]; i.v. 3.3 mg/kg) | t1/2, terminal half-life, plasma ([2]; i.v. 3.3 mg/kg) | tmax, brain ([2]; i.v. 3.3 mg/kg) | tmax, plasma ([2]; i.v. 3.3 mg/kg) | λz, terminal elimination rate constant, plasma ([2]; i.v. 3.3 mg/kg) | Cmax, brain ([2]; i.v. 3.3 mg/kg) | Cmax, plasma [2, 4] | AUC %ID,0 - 1440, plasma ([2]; i.v. 3.3 mg/kg) | AUC %ID,0 - 1440, brain [2, 5] | CL, terminal plasma clearance [2, 5] | MRT, plasma [2, 5] | t1/2, terminal half-life, plasma [2, 5] | tmax, brain [2, 5] | tmax, plasma [2, 5] | λz, terminal elimination rate constant, plasma [2, 5] | F (AUC %ID), oral bioavailability [2] | Cmax, brain [2, 5] | further results |
| --- | --- | --- | --- | --- | --- | --- | --- | --- | --- | --- | --- | --- | --- | --- | --- | --- | --- | --- | --- | --- | --- |
| CC[C@@H](C)[C@@H](NC(=O)[C@@H](CCCNC(=N)N)NC(=O)[C@@H](CCCCN)NC(=O)[C@H](N)CCCNC(=N)N)C(=O)N[C@H](CCCNC(=N)N)C(=O)N[C@H](CC(C)C)C(=O)N[C@@H](C(=O)N[C@@H](C(=O)N[C@H](CCCCN)C(=O)N[C@H](CCCCN)C(=O)N[C@H](CCCCN)C(=O)N[C@H](CCCNC(=N)N)C(N)=O)[C@H](C)O)C(C)C [ANK6] (H-[dR][dK][dR][dI][dR][dL][dV][dT][dK][dK][dK][dR]-NH2; N-terminus assumed) | two-fold molar excess | 35.8 min*% ID/g | 32.0 mL/min/kg | 3 h | 15 h | 0.083 h | 0 h | 0.00077 min⁻¹ | 0.07 % ID/g | 3.17 % ID/mL | 91.7 min*% ID/mL | 11.0 min*% ID/g | 174.5 mL/min/kg | 10 h | 22 h | 1 h | 2 h | 0.00054 min⁻¹ | 11.8% | 0.01 % ID/g | pIC50 [1]: 5.44; reduction of the aggregation amplitude [1]: more than 97%; peptide concentration detected in the blood [2]: 0.01 µM; CSF levels ([2]; about 60 min after both types of administration (i.v., p.o.)): Extraordinary high CSF levels; Cmax, plasma [2, 5]: 0.02 % ID/mL; AUC %ID,0 - 1440, plasma [2, 5]: 10.8 min*% ID/mL |
